Data on twelve molecules can be found in ChEMBL document CHEMBL3112455, “Synthesis of 6-tetrazolyl-substituted sulfocoumarins acting as highly potent and selective inhibitors of the tumor-associated carbonic anhydrase isoforms IX and XII” (Bioorg Med Chem, 2014).

The term Ki denotes the dissociation constant of the complex between target and ligand, obtained from inhibition or displacement.

Bounds are passed on as bounds.

One assay deals with Carbonic anhydrase 1 (Homo sapiens, UniProt P00915). In words: Inhibition of human recombinant cytosolic carbonic anhydrase 1 after 6 hrs by stopped flow CO2 hydration method.
Chain of Carbonic anhydrase 1 (P00915 whole entry): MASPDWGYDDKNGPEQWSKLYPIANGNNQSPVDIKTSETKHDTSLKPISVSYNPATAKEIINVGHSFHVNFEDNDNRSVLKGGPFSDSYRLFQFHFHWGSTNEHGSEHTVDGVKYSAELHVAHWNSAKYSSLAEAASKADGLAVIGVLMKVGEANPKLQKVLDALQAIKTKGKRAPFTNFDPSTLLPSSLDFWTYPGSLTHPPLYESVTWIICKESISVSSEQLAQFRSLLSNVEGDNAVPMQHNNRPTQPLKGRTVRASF
Another assay deals with Carbonic anhydrase 2 (Homo sapiens, UniProt P00918). In words: Inhibition of human recombinant cytosolic carbonic anhydrase 2 after 6 hrs by stopped flow CO2 hydration method.
For the next assay, the target named is Carbonic anhydrase 9 (Homo sapiens, UniProt Q16790).
The next assay deals with Carbonic anhydrase 12 (Homo sapiens, UniProt O43570). In words: Inhibition of human recombinant transmembrane carbonic anhydrase 12 after 6 hrs by stopped flow CO2 hydration method.
Chain of Carbonic anhydrase 12 (O43570 whole entry): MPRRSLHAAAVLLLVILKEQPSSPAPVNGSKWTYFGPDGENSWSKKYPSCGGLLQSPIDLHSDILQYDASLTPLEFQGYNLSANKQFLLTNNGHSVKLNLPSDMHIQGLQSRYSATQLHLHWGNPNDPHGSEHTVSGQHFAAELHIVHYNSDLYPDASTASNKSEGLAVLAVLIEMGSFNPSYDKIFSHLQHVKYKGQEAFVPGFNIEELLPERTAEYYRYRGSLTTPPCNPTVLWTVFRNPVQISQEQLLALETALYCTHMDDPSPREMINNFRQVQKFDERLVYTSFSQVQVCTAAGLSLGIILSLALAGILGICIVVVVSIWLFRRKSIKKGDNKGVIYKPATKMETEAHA

Description for Carbonic anhydrase 9: Inhibition of human recombinant transmembrane carbonic anhydrase 9 after 6 hrs by stopped flow CO2 hydration method

`O=S1(=O)C=Cc2cc(-n3cnnn3)ccc2O1`: the Ki at Carbonic anhydrase 1 and at Carbonic anhydrase 2 was > 10 µM in each case.
As for `Cc1nnnn1-c1ccc2c(c1)C=CS(=O)(=O)O2`, the Ki on Carbonic anhydrase 1 and at Carbonic anhydrase 2 was > 10 µM throughout.
Regarding `O=S1(=O)C=Cc2cc(-c3nnnn3-c3ccccc3)ccc2O1`, the inhibitory constant (Ki) at Carbonic anhydrase 1 and at Carbonic anhydrase 2 was > 10 µM each time.
Turning to `Cc1ccc(-n2nnnc2-c2ccc3c(c2)C=CS(=O)(=O)O3)cc1`, the Ki on Carbonic anhydrase 1 is > 10 µM; on Carbonic anhydrase 9, 0.0091 µM; on Carbonic anhydrase 2 it was > 10 µM.
For the molecule `Cc1cccc(-n2nnnc2-c2ccc3c(c2)C=CS(=O)(=O)O3)c1`, the figures for the Ki at Carbonic anhydrase 1, at Carbonic anhydrase 9 and on Carbonic anhydrase 2 were > 10 µM, 0.0271 µM and > 10 µM, respectively.
As for `COc1ccc(-n2nnnc2-c2ccc3c(c2)C=CS(=O)(=O)O3)cc1`, the inhibition constant (Ki) is > 10 µM at Carbonic anhydrase 1, 0.0087 µM at Carbonic anhydrase 9 and > 10 µM on Carbonic anhydrase 2.
For `O=S1(=O)C=Cc2cc(-c3nnnn3-c3ccc(C(F)(F)F)cc3)ccc2O1`, the Ki at Carbonic anhydrase 1 is > 10 µM; at Carbonic anhydrase 9 it was 0.0393 µM; at Carbonic anhydrase 2 it was > 10 µM.
With `O=S1(=O)C=Cc2cc(-c3nnnn3-c3cccc(Br)c3)ccc2O1`, the Ki at Carbonic anhydrase 1 was > 10 µM; at Carbonic anhydrase 9, 0.0568 µM; on Carbonic anhydrase 2, > 10 µM.
`O=S1(=O)C=Cc2cc(-c3nnnn3-c3ccc(Cl)cc3)ccc2O1`: the Ki at Carbonic anhydrase 1 is > 10 µM; at Carbonic anhydrase 9 it was 0.0088 µM; at Carbonic anhydrase 2, > 10 µM.
As to `O=S1(=O)C=Cc2cc(-c3nnnn3-c3ccc(F)c(Cl)c3)ccc2O1`, the Ki is > 10 µM at Carbonic anhydrase 1, 0.0069 µM on Carbonic anhydrase 9, 0.0054 µM on Carbonic anhydrase 12 and > 10 µM on Carbonic anhydrase 2.
Regarding `O=S1(=O)C=Cc2cc(-c3nnnn3-c3ccc(Cl)c(Cl)c3)ccc2O1`, the Ki at Carbonic anhydrase 1 was > 10 µM; at Carbonic anhydrase 9, 0.0082 µM; on Carbonic anhydrase 2, > 10 µM.
As for `O=S1(=O)C=Cc2cc(-c3nnnn3-c3cccc4ccccc34)ccc2O1`, the inhibition constant (Ki) at Carbonic anhydrase 1 and on Carbonic anhydrase 2 was > 10 µM in each case.
